Results taken from patent EP0638079B1, “DEAZAAMINOPTERINS FOR TREATMENT OF INFLAMMATION” (SRI INTERNATIONAL, priority 1992, dated 1993).

How the values were obtained:
[1] = test system: human liver cell line (Chang liver)
L. casei = conditions: folate dependent bacteria; cited from earlier work
S. faecium = conditions: folate dependent bacteria; cited from earlier work
DBA/1 mice = experiment: Type II collagen arthritis mouse model (visual inflammation, rear paw swelling); type: in vivo; conditions: for No Mice on day indicated (visual evidence of inflammation), Day 30 / No Mice on day indicated (visual evidence of inflammation), Day 37 / No Mice on day indicated (visual evidence of inflammation), Day 44 / Ave. thickness of rear paws (mm) over days 30-44, Treated: Table IIA; for No Mice on day indicated (visual evidence of inflammation), Day 30 / No Mice on day indicated (visual evidence of inflammation), Day 37 / No Mice on day indicated (visual evidence of inflammation), Day 44 / No mice affected on day indicated (visual evidence of inflammation), Day 30 / No mice affected on day indicated (visual evidence of inflammation), Day 37 / No mice affected on day indicated (visual evidence of inflammation), Day 44: affected mice/mice in group; for No Mice on day indicated (visual evidence of inflammation), Day 30: dose (mg/kg) per compound as in Dose column; for No Mice on day indicated (visual evidence of inflammation), Day 37 / No Mice on day indicated (visual evidence of inflammation), Day 44 / No mice affected on day indicated (visual evidence of inflammation), Day 30: dose per compound as in Dose column; for Ave. thickness of rear paws (mm) over days 30-44, Treated / Avg. thickness of rear paws (mm) over days 30-44, Treated: caliper; for Avg. thickness of rear paws (mm) over days 30-44, Treated / No mice affected on day indicated (visual evidence of inflammation), Day 30 / No mice affected on day indicated (visual evidence of inflammation), Day 37 / No mice affected on day indicated (visual evidence of inflammation), Day 44: Table IIB
Excerpt: The following data illustrate administration to mice of several deazaaminopterin compounds of the invention and methotrexate in the evaluation of anti-inflammatory activity. The data are presented as two separate observations, the visually observed presence of inflammation in the mouse, and the caliper-measured degree of swelling of the rear paws of the mouse.
The efficacy evaluation used a mouse model of inflammatory disease that occurs in response to an antigenic challenge with Type II collagen [J. S. Courtenay et al., Nature, 283, 666-668 (1980)].
The fundamental aspects of the model allow it to serve as a representative presentation of human disease. The parallels between the known aspects of the mouse model and rheumatoid arthritis include a humoral response in which antibodies are produced to an antigen that is present in the joint tissue and the antigenic challenge is accompanied by cell-mediated aspects of immunity. The resultant inflammation of the joint tissue yields facets of periostitis, synovial lining hyperplasia, degradation of bone and cartilage and pannus and new bone formation.
The basic elements of the model included the immunization of DBA/1 mice with a suspension of fetal bovine Type II collagen (1 mg/ml) prepared in complete Freund's adjuvant. The primary injection was given using 0.1 ml of the collagen emulsion giving a total of 0.1 mg of Type II collagen per mouse. The animals were then given a booster injection of Type II collagen (100 µg in 0.01 M acetic acid ) on day 21 by intraperitoneal injection.
Typically, in this model the untreated positive control animals have an incidence of arthritis ranging from 90 to 100% of injected animals at day 44.
The effect of methotrexate and test compounds on the extent of inflammation was determined by direct analysis of paw swelling using caliper measurements. The results are presented in Table IIA, and show a direct correlation between the decrease in the number of animals having disease and a decrease in the extent of inflammation, as determined by paw swelling. Table IIA […]

[2] = target: T1, bovine liver dihydrofolate reductase (Bos taurus, UniProt P00376); conditions: cited from earlier work
T1 construct: host or cells: bovine liver
T1 sequence (P00376 1-187): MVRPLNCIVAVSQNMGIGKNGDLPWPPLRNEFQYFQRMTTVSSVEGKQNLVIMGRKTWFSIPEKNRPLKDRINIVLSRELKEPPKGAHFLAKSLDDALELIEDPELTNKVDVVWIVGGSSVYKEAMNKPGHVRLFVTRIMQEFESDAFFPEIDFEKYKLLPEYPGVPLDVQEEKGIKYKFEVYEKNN

[3] = test system: L1210 murine leukemia cells; conditions: cited from earlier work
L1210 = conditions: against L1210 in BDF1 mice; cited from earlier work
P388 leukemia = conditions: against P388 leukemia in BDF1 mice; cited from earlier work
[4] = 30 day measurement (first value)
[5] = 44 day measurement (second value)

Row | SMILES | Ratio Of Cytotoxic Potency Versus Methotrexate For Inhibition Of Human Liver Cell Growth In Culture [1] | No Mice on day indicated (visual evidence of inflammation), Day 30 (DBA/1 mice) | No Mice on day indicated (visual evidence of inflammation), Day 37 (DBA/1 mice) | No Mice on day indicated (visual evidence of inflammation), Day 44 (DBA/1 mice) | also measured
1 | Nc1nc(N)c2cc(CCc3ccc(C(=O)NC(CCC(=O)O)C(=O)O)cc3)cnc2n1 (stereo not drawn) [5,10-Dideazaaminopterin] | 2.46 | – | – | – | growth inhibition (L. casei): effective growth inhibitor; growth inhibition (S. faecium): effective growth inhibitor
2 | CCc1c(CNc2ccc(C(=O)NC(CCC(=O)O)C(=O)O)cc2)cnc2nc(N)nc(N)c12 (stereo not drawn) [5-Et-10-H (5-Et-5-DA)] | 4.50 | 2/8 | 5/8 | 2/8 | –
3 | CCc1c(CN(C)c2ccc(C(=O)NC(CCC(=O)O)C(=O)O)cc2)cnc2nc(N)nc(N)c12 (stereo not drawn) [5-Et-10-Me (5-Et-5-DMTX)] | 3.18 | 0/7 | 1/7 | 1/7 | –
4 | C#CCN(Cc1cnc2nc(N)nc(N)c2c1)c1ccc(C(=O)NC(CCC(=O)O)C(=O)O)cc1 (stereo not drawn) [5-H-10-Propargyl (10-Prgl-5-DA), 10-propargyl-5-deazaaminopterin] | 1.26 | 3/8 | 2/8 | 6/8 | –
5 | C=CCN(Cc1cnc2nc(N)nc(N)c2c1C)c1ccc(C(=O)NC(CCC(=O)O)C(=O)O)cc1 (stereo not drawn) [5-Me-10-Allyl (5-Me-10-Allyl-5-DA)] | – | 0/8 | 0/8 | 0/8 | –
6 | Cc1c(CNc2ccc(C(=O)NC(CCC(=O)O)C(=O)O)cc2)cnc2nc(N)nc(N)c12 (stereo not drawn) [5-Me-10-H (5-Me-5-DA), 5-methyl-5-deazaaminopterin] | 4.39 | – | 2/8 | 6/8 | –
7 | Cc1c(CN(C)c2ccc(C(=O)NC(CCC(=O)O)C(=O)O)cc2)cnc2nc(N)nc(N)c12 (stereo not drawn) [5-Me-10-Me (5-Me-5-DMTX), 5-methyl-5-deazamethotrexate] | 2.79 | 1/8 | 4/8 | 5/8 | –
8 | C#CCN(Cc1cnc2nc(N)nc(N)c2c1C)c1ccc(C(=O)NC(CCC(=O)O)C(=O)O)cc1 (stereo not drawn) [5-Me-10-Propargyl (5-Me-10-Prgl-5-DA), 10-propargyl-5-methyl-5-deazaaminopterin] | 21.18 | 3/8 | 3/8 | 2/8 | Ave. thickness of rear paws (mm) over days 30-44, Treated (DBA/1 mice; 30 day measurement (first value in parentheses)): (2.29-2.29) mm; Ave. thickness of rear paws (mm) over days 30-44, Treated (DBA/1 mice; 44 day measurement (second value in parentheses)): (2.29-2.29) mm
9 | CCCc1c(CNc2ccc(C(=O)N[C@@H](CCC(=O)O)C(=O)O)cc2)cnc2nc(N)nc(N)c12 [5-Pr-10-H (5-Pr-5-DA), N-[4-[[(2,4-Diamino-5-propylpyrido[2,3-d]pyrimidin-6-yl)methyl]amino]benzoyl]-L-glutamic Acid] | 1.78 | 0/7 | 0/7 | 0/7 | –
10 | CC(Cc1cnc2nc(N)nc(N)c2c1)c1ccc(C(=O)NC(CCC(=O)O)C(=O)O)cc1 (stereo not drawn) [10-Me-5,10-Dideazaaminopterin] | 2.69 | – | – | – | –
11 | CCCCc1c(CNc2ccc(C(=O)N[C@@H](CCC(=O)O)C(=O)O)cc2)cnc2nc(N)nc(N)c12 [Compound 5-Bu-10-NH] | 7.20 | – | – | – | –
12 | Cc1c(CNc2ccc(C(=O)N[C@@H](CCC(=O)O)C(=O)O)s2)cnc2nc(N)nc(N)c12 [Example B', N-[5-[[(2,4-Diamino-5-methylpyrido[2,3-d]pyrimidin-6-yl)methyl]amino]thiophene-2-carbonyl]-L-glutamic Acid] | – | – | – | – | Avg. thickness of rear paws (mm) over days 30-44, Treated (DBA/1 mice; [4]): 2.19 mm; Avg. thickness of rear paws (mm) over days 30-44, Treated (DBA/1 mice; [5]): 2.33 mm; No mice affected on day indicated (visual evidence of inflammation), Day 30 (DBA/1 mice): 0/5; No mice affected on day indicated (visual evidence of inflammation), Day 37 (DBA/1 mice): 2/5; No mice affected on day indicated (visual evidence of inflammation), Day 44 (DBA/1 mice): 2/5
13 | Cc1c(CN(C)c2ccc(C(=O)N[C@@H](CCC(=O)O)C(=O)O)s2)cnc2nc(N)nc(N)c12 [Example C', N-[5-[[(2,4-Diamino-5-methylpyrido[2,3-d]pyrimidin-6-yl)methyl]methylamino]thiophene-2-carbonyl]-L-glutamic Acid] | – | – | – | – | Avg. thickness of rear paws (mm) over days 30-44, Treated (DBA/1 mice; [4]): 2.13 mm; Avg. thickness of rear paws (mm) over days 30-44, Treated (DBA/1 mice; [5]): 2.27 mm; No mice affected on day indicated (visual evidence of inflammation), Day 30 (DBA/1 mice): 0/8; No mice affected on day indicated (visual evidence of inflammation), Day 37 (DBA/1 mice): 1/8; No mice affected on day indicated (visual evidence of inflammation), Day 44 (DBA/1 mice): 3/8
14 | CCc1c(CN(C)c2ccc(C(=O)N[C@@H](CCC(=O)O)C(=O)O)s2)cnc2nc(N)nc(N)c12 [Example D', N-[5-[[(2A-Diamino-5-ethylpyrido[2,3d] -pyrimidin-6-yl)methyl]methylamino]thiophene-2-carbonyl]-L-glutamic Acid] | – | – | – | – | Avg. thickness of rear paws (mm) over days 30-44, Treated (DBA/1 mice; [4]): 2.13 mm; Avg. thickness of rear paws (mm) over days 30-44, Treated (DBA/1 mice; [5]): 2.32 mm; No mice affected on day indicated (visual evidence of inflammation), Day 30 (DBA/1 mice): 2/8; No mice affected on day indicated (visual evidence of inflammation), Day 37 (DBA/1 mice): 4/8; No mice affected on day indicated (visual evidence of inflammation), Day 44 (DBA/1 mice): 7/8
15 | Nc1nc(N)c2cc(CNc3ccc(C(=O)N[C@@H](CCC(=O)O)C(=O)O)cc3)cnc2n1 [L-5-deazaaminopterin] | – | – | – | – | potency as inhibitor compared with methotrexate [2]: equipotent with methotrexate; potency as inhibitor compared with methotrexate [3]: equipotent with methotrexate; in vivo potency compared with methotrexate (L1210): equipotent with methotrexate; in vivo potency compared with methotrexate (P388 leukemia): equipotent with methotrexate
16 | CN(Cc1cnc2nc(N)nc(N)c2n1)c1ccc(C(=O)N[C@@H](CCC(=O)O)C(=O)O)cc1 [MTX, methotrexate, reference compound] | 1.00 | 1/22 | 1/22 | 6/22 | Avg. thickness of rear paws (mm) over days 30-44, Treated (DBA/1 mice; [4]): 2.128 mm; Avg. thickness of rear paws (mm) over days 30-44, Treated (DBA/1 mice; [5]): 2.34 mm; No mice affected on day indicated (visual evidence of inflammation), Day 30 (DBA/1 mice): 1/22; No mice affected on day indicated (visual evidence of inflammation), Day 37 (DBA/1 mice): 1/22; No mice affected on day indicated (visual evidence of inflammation), Day 44 (DBA/1 mice): 6/22; effectiveness of prophylactic regimen (DBA/1 mice; drug begun two days prior to administration of antigen versus starting drug at day 19): more effective than starting drug at day 19
